{
  "source": "paper PMC5537869",
  "about": "“Role of Zucchini and Its Distinctive Components in the Modulation of Degenerative Processes: Genotoxicity, Anti-Genotoxicity, Cytotoxicity and Apoptotic Effects” (Nutrients, 2017)",
  "key": {"[1]": {"tested_on": "Drosophila melanogaster transheterozygous larvae", "assay": "Anti-genotoxicity (combined treatment with hydrogen peroxide 120 mM), Drosophila wing spot test (SMART)", "format": "in vivo", "parameters": "key to Mann-Whitney Test: n.s.: non-significant", "details": "combined treatment with H2O2 120 mM; for Mann-Whitney Test: vs negative control", "protocol": "(§1) The principles and basic procedures for the Drosophila wing spot test have been described by Graf et al., and in previous works of our group. Two strains of flies carrying wing genetic markers on the left arm of chromosome 3: multiple wing […] used. The transheterozygous larvae were obtained by crossing […] (Third Multiple 3), Bd^S(Beaded […]) virgin females. Hybrid eggs derived from crossing optimally fertile flies were collected over an 8 h period. […] Concurrent negative controls with the solvent alone (water) and positive controls with hydrogen peroxide (120 mM) were also run. Anti-genotoxicity tests were carried out by mixing the mutagen (hydrogen peroxide, 120 mM) with the compounds solution. After emergence, adult flies were collected from the treatment vials and stored in 70% ethanol. The wings of the flies were removed under a stereomicroscope using a pair of entomological tweezers, similar number of males and females-wings were mounted in Faure's solution on microscope slides and inspected, under 400× magnification, for the presence of clones of cells. The mutant clones were classified into three types: […] The appearance of twin spots indicated the recombinogenic activity of the chemotherapeutic agent (Figure 1). The frequencies of spots per fly of treated series were compared with its corresponding negative control series (water) to analyze Somatic Mutation and Recombination Test (SMART) data. For maximum power, statistical analyses were done exclusively for the total number of spots recovered. The non-parametric U test of Mann, Whitney and Wilcoxon was used to avoid weak positive and inconclusive results on SMART and to achieve a well-defined statistical diagnosis whether a given treatment should be regarded as genotoxic or not. The inhibition percentages (IP) were calculated using the total spots per wing with the following formula [16, 36]: IP = ((Genotoxine alone - Genotoxine plus active compound)/Genotoxine alone) × 100"}, "[2]": {"tested_on": "HL60 cells", "assay": "Cytotoxicity assay, trypan blue exclusion", "format": "cell-based, human", "details": "HL60, 72 h, trypan blue exclusion, at the tested concentrations", "protocol": "Therefore, all the cells that exclude the dye are viable. Non-viable cells stained purple-violet, whereas viable ones remained unstained. Trypan blue was added to cell cultures at a 1:1 ratio, and 20 μL of cell suspension was loaded into a Neubauer chamber. The cells were counted under an inverted microscope at 100× magnification. […] Curves are expressed as survival percentage with respect to controls growing at 72 h. All data represent the average of at least three independent experiments."}, "[3]": {"tested_on": "SP6.5 cell line", "parameters": "method as in PMID 24223611", "details": "SP6.5 human uveal melanoma cell line; read-out: IC50 (cell viability); cited from earlier work"}, "[4]": {"tested_on": "C918 cell line", "parameters": "method as in PMID 24223611", "details": "C918 human uveal melanoma cell line; read-out: IC50 (cell viability); cited from earlier work"}, "[5]": {"tested_on": "HL60 cells", "assay": "Nucleosomal DNA fragmentation assay", "format": "cell-based, human", "details": "HL60, 5 h, same concentrations as in the cytotoxicity assay, agarose gel", "protocol": "The HL60 tumoral cell line was used with the aim of analyse the apoptotic induction. […] A non-treated cells control was included for each experiment. For DNA fragmentation, treated cells were collected, were centrifuged at 4000 rpm for 5 min and washed with PBS. […] The agarose gels were run at 50 V for 90 min in TBE (Tris/Borate/EDTA) buffer and then observed and photographed under UV light. For Annexin V-PI test, Annexin V Apoptosis Detection Kit ([…] Biotech S.L., Cordoba, Spain) was used. Briefly, cells were resuspended in 100 μL of Binding buffer solution 1× and subsequently, 5 μL AnnexinV-FITC (Fluorescein isothiocyanate) and 10 μL propidium iodide were added, and samples were incubated for 10 min at room temperature in darkness, and flow cytometry (Beckman Coulter Inc., Brea, CA, USA) was then used to analyze the rate of apoptosis."}, "[6]": {"tested_on": "normal ocular cells (uveal melanocytes, retinal pigment epithelial cells, and scleral fibroblasts)", "parameters": "method as in PMID 24223611", "details": "highest level tested 300 μM; cited from earlier work"}, "[7]": {"tested_on": "Drosophila melanogaster transheterozygous larvae", "assay": "Genotoxicity (single treatment), Drosophila wing spot test (SMART)", "format": "in vivo", "parameters": "key to Mann-Whitney Test: n.s.: non-significant", "details": "single treatment; for Mann-Whitney Test: vs negative control", "protocol": "as §1"}},
  "note": "Several values for one entry are separate records, joined by “and”; a condition that tells them apart may be missing. Equal values may be shown once.",
  "data": [
    {"smiles": "CC1=C(/C=C/C(C)=C/C=C/C(C)=C/C=C/C=C(C)/C=C/C=C(C)/C=C/C2=C(C)C[C@@H](O)CC2(C)C)C(C)(C)C[C@H](O)C1", "note": "[Zeaxanthin, zeaxanthin]", "values": [
      {"measurement": "Large Spots (>2 Cells) m = 5", "setting": "[1]; 0.0001 μM", "value": "0.00 (0) clones per wing"},
      {"measurement": "Small Spots (1–2 Cells) m = 2", "setting": "[1]; 0.0001 μM", "value": "0.03 (1) clones per wing"},
      {"measurement": "Total Spots m = 2", "setting": "[1]; 0.0001 μM", "value": "0.05 (2) clones per wing"},
      {"measurement": "Twin Spots m = 5", "setting": "[1]; 0.0001 μM", "value": "0.03 (1) clones per wing"},
      {"measurement": "Mann-Whitney Test", "setting": "[1]; 0.0001 μM", "value": "n.s."},
      {"measurement": "Large Spots (>2 Cells) m = 5", "setting": "[1]; 0.105 μM", "value": "0.00 (0) clones per wing"},
      {"measurement": "Small Spots (1–2 Cells) m = 2", "setting": "[1]; 0.105 μM", "value": "0.07 (2) clones per wing"},
      {"measurement": "Total Spots m = 2", "setting": "[1]; 0.105 μM", "value": "0.07 (2) clones per wing"},
      {"measurement": "Twin Spots m = 5", "setting": "[1]; 0.105 μM", "value": "0.00 (0) clones per wing"},
      {"measurement": "Mann-Whitney Test", "setting": "[1]; 0.105 μM", "value": "n.s."},
      {"measurement": "cytotoxic effect (tumoral viability)", "setting": "[2]", "value": "slight cytotoxic activities"},
      {"measurement": "IC50", "setting": "[3]", "value": 40.8, "unit": "µM"},
      {"measurement": "IC50", "setting": "[4]", "value": 28.7, "unit": "µM"},
      {"measurement": "internucleosomal DNA fragmentation ladder pattern", "setting": "[5]", "value": "did not show any internucleosomal fragmentation ladder pattern"},
      {"measurement": "effect on viability of normal ocular cells", "setting": "[6]", "value": "did not affect the viability"},
      {"measurement": "Large Spots (>2 Cells) m = 5", "setting": "[7]; 0.0001 μM", "value": "0.00 (0) clones per wing"},
      {"measurement": "Small Spots (1–2 Cells) m = 2", "setting": "[7]; 0.0001 μM", "value": "0.05 (2) clones per wing"},
      {"measurement": "Total Spots m = 2", "setting": "[7]; 0.0001 μM", "value": "0.05 (2) clones per wing"},
      {"measurement": "Twin Spots m = 5", "setting": "[7]; 0.0001 μM", "value": "0.00 (0) clones per wing"},
      {"measurement": "Mann-Whitney Test", "setting": "[7]; 0.0001 μM", "value": "n.s."},
      {"measurement": "Large Spots (>2 Cells) m = 5", "setting": "[7]; 0.105 μM", "value": "0.03 (1) clones per wing"},
      {"measurement": "Small Spots (1–2 Cells) m = 2", "setting": "[7]; 0.105 μM", "value": "0.10 (4) clones per wing"},
      {"measurement": "Total Spots m = 2", "setting": "[7]; 0.105 μM", "value": "0.15 clones per wing and 0.15 (6) clones per wing"},
      {"measurement": "Twin Spots m = 5", "setting": "[7]; 0.105 μM", "value": "0.03 (1) clones per wing"},
      {"measurement": "Mann-Whitney Test", "setting": "[7]; 0.105 μM", "value": "n.s."}
    ]}
  ]
}
